The text below walks through data of ChEMBL document CHEMBL5579853, “Recent progress in the development of hypoxia-inducible factor 2α (HIF-2α) modulators: Inhibitors, agonists, and degraders (2009-2024)” (Eur J Med Chem, 2024).

In one assay the test system is 786-0. Description: cells. Conditions: Homo sapiens, 786-0, 72 h.
Description: Antiproliferative activity against human 786-0 cells assessed as inhibition of cell growth incubated for 72 hrs by celltiter-glo assay
For orientation: IC50 means the point on the concentration scale where inhibition reaches its midpoint. A high value points to a need for much substance. Compound `CNC(=O)c1ccn2c(C(F)F)cc(-c3ccc(C)c(C)c3)nc12` registered an IC50 below 5000 nM.

Compound `CC[C@@H](Nc1cccc(F)c1)C(=O)N/N=C/c1cccc(C)c1O` yielded an IC50 of 5000 nM.

The target in a further assay is Endothelial PAS domain-containing protein 1 (Homo sapiens, UniProt Q99814). The assay is described as follows: Inhibition of HIF-2alpha (unknown origin).
Chain of Endothelial PAS domain-containing protein 1 (Q99814 whole entry, the tested form may be a part): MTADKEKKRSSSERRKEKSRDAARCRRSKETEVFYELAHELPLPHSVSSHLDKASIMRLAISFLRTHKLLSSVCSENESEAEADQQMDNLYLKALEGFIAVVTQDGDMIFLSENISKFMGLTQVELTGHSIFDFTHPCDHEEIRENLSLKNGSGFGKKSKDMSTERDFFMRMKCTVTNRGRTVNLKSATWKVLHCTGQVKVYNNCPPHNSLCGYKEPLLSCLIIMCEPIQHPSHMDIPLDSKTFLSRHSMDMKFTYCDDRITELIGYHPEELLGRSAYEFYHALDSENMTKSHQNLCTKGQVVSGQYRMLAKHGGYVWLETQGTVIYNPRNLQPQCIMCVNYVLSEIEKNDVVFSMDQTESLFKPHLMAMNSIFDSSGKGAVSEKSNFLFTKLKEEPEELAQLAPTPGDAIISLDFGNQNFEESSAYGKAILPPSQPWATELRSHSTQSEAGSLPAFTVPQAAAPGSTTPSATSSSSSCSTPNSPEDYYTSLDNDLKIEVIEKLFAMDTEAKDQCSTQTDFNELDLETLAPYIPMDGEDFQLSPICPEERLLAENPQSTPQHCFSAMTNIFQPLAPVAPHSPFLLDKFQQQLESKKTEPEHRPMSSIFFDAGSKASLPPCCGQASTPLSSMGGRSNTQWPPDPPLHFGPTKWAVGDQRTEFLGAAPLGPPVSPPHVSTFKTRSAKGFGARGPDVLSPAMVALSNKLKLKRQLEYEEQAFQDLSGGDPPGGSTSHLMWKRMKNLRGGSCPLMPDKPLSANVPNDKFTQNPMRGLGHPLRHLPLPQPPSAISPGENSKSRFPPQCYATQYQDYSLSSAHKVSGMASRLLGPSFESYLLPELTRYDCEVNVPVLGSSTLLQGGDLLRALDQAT
Conditions: not given
As usually defined, the EC50 is the concentration that produces a half-maximal response. Higher therefore signals a less potent agent. `OC1c2c(C(F)(F)F)cn(-c3cncc(F)c3)c2CC(F)C1F` (stereo not drawn) registered an EC50 of 500 nM.

In turn, `N#Cc1cc(F)cc(Oc2ccc3c4c2C(F)CC4(O)C(F)(F)S3(=O)=O)c1` (stereo not drawn) displayed an EC50 below 50 nM.

On to `CS(=O)(=O)c1ccc(N2CCCc3ccccc32)c2c1[C@H](O)[C@H](F)C2`, for which the EC50 was determined as 340 nM.

`CP(C)(=O)c1ccc(Oc2cc(F)cc(F)c2)c2c1C(O)C(F)(F)C2` (stereo not drawn) displayed an EC50 of 29 nM.

The compound `N#Cc1cc(F)cc(Oc2ccc(S(=O)(=O)C(F)(F)F)c3[nH]ncc23)c1` yielded an EC50 below 100 nM.

With `CS(=O)(=O)c1ccc([C@H]2CCCc3cc(F)cc(C#N)c32)c2c1[C@H](O)[C@H](F)[C@@H]2F`, the EC50 is below 100 nM.

In turn, `CS(=O)(=O)c1sc(N2CCCc3ccccc32)c2c1[C@H](O)[C@H](F)C2` returned an EC50 of 2200 nM.

For the compound `O[C@@H]1CCc2c(Oc3cc(F)cc(F)c3)ncnc21`, the EC50 turned out to be 11 nM.

In turn, `O[C@H]1c2c(C(F)(F)F)ncc(OC3CC(F)(F)C3)c2[C@@H](F)[C@H]1F` yielded an EC50 of 21 nM.

The target of another assay is T1, Vascular endothelial growth factor A, long form (Homo sapiens, UniProt P15692).
T1 sequence (P15692 whole entry): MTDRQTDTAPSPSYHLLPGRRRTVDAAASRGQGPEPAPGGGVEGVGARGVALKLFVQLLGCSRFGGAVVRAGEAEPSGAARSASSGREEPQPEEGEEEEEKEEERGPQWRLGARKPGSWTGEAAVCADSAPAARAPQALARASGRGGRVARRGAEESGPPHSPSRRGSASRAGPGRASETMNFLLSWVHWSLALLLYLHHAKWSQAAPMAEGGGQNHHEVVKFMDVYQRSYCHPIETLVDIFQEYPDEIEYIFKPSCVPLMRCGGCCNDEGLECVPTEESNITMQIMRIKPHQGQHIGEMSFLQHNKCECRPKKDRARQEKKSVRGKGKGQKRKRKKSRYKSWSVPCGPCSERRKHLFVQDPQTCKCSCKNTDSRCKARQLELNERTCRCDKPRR
The assay is described as follows: Inhibition of VEGF (unknown origin) by FRET based analysis.
Conditions: not given
Compound `FC(F)OC1=CC2=N[C@]3(C[C@H]4C[C@H]4c4c3ccnc4Cl)CN2C=C1C(F)(F)F` had an IC50 of 50 nM.

In turn, `Fc1c(C(F)(F)F)ncc2c1SC[C@H](F)[C@@]21CN2C=C(C(F)(F)F)C(OC(F)F)=CC2=N1` yielded an IC50 of 15 nM.
